Experiment: Biocide miscibility screening
Type: physicochemical
Settings: 50:50 mixture, 24 hrs
Description: Each component was mixed as 50:50 (based on active solids) mixture. The content was allowed to sit for 24 hrs before photographing.

Which results are given for `N#Cc1c(-c2ccc(Cl)cc2)[nH]c(C(F)(F)F)c1Br` [Econea, Tralopyril 4-bromo-2-(4-chlorophenyl)-5-(trifluoromethyl)-1H-pyrrole-3-carbonitrile]?
Miscibility of Econea and SeaNine 211N with each other: not miscible; Miscibility with AM-14: only partially miscible; Miscibility with AM-24: good miscibility; Miscibility with PDMS (silanol): only partially miscible

Which results are given for `CCCCCCCCn1sc(Cl)c(Cl)c1=O` [SeaNine 211N, 4,5-Dichloro-2-n-octyl-4-isothiazolin-4-one]?
Miscibility of Econea and SeaNine 211N with each other: not miscible; Miscibility with AM-14: miscible; Miscibility with AM-24: miscible; Miscibility with PDMS (silanol): did not show complete miscibility

Source: US12018172B2, “Sidechain functionalized organosiloxanes, coating compositions containing sidechain functionalized organosiloxanes, coated articles, and methods of making and methods of use thereof” (Adaptive Surface Technologies, Inc., priority 2018, dated 2024)
